Measured values as given in patent US20230405003A1, “APPLICATION OF THYMIDINE DERIVATIVE IN PREPARATION OF DRUGS” (ONQUALITY PHARMACEUTICALS CHINA LTD., priority 2020, published 2023).
Read-outs that look alike come from different tables or passages of the source.

Columns and labels:
HaCaT cells = experiment: Relief of 5-FU proliferative toxicity to HaCaT cells (CCK-8 cell survival); type: cell-based; settings: for Cell Survival Rate (increased percentage of cell survival compared with the Group of 5-FU): 5-Fu 20 μM, HaCaT cells
Experimental: The cultured skin cell HaCaTs were digested, counted, and inoculated into a 96-well plate with 5000-10000 cells in each well. After 24 h of culture, the wells were divided into Group of blank solvent control, Group of 5-FU, Group of 5-FU+thymidine derivative, Group of 5-FU+the combination of thymidine derivative and uridine derivative. […] adding a solution of 5-FU and a solution of thymidine derivative (the final concentrations of 5-FU and thymidine derivative are shown in Table 3, the solution of thymidine is an aqueous solution, while the solutions of thymidine derivatives are all DMSO solutions); Group of 5-FU+the combination of thymidine derivative and uridine derivative: adding a solution of 5-FU and a mixed solution of thymidine derivative and uridine derivative (the final concentrations of the solution of 5-FU and the mixed solution of thymidine derivative+uridine derivative are shown in Table 3, the solution of thymidine is an aqueous solution, while the mixed solutions of thymidine derivative+uridine derivative are all DMSO solutions); Group of blank solvent control: adding the same type of solution as those of the corresponding Group of 5-FU or Group of 5-FU+thymidine derivative (or the mixed solution of thymidine derivative+uridine derivative) in equal volume. Group of blank solvent control was used as control to exclude the influence of the solvents in Group of 5-FU and Group of 5-FU+thymidine derivative (or the mixed solution of thymidine derivative+uridine derivative) on the results. After additional 48 hours of culture, a Cell Counting Kit-8 (CCK-8) detection kit (C0037, purchased from Shanghai Beyotime Biotechnology) is used to determine the cell survival rate, thereby calculating the proliferative toxicity of 5-Fu/5-DFUR on cells and the relieving effect of the thymidine derivative (or the mixed solution of thymidine derivative+uridine derivative) on the proliferative toxicity. Using GraphPad Prism 6.0 software, the results were statistically analyzed by t-test and plotted.
(§1) Table 3 lists the combinations of 5-FU and thymidine derivative (or the mixed solution of thymidine derivative+uridine derivative), and the corresponding experimental results (wherein the data in the column of cell survival indicate the corresponding increased percentage of the cell survivals of Group of 5-FU+thymidine derivative or Group of 5-FU+the combination of thymidine derivative and uridine derivative compared with the Group of 5-FU). FIGS. 3-10 list the experimental results of several representative compounds.
The effect of thymidine derivative or a combination of thymidine derivative and uridine derivative on relieving the proliferative toxicity of a chemotherapeutical drug (5-FU) to HaCaT cells was tested according to the method in Examples 2-29. The test thymidine derivative or the combination of thymidine derivative and uridine derivative, as well as the final concentration of the test compounds were shown in Table 7.
as §1, with “7” for “3”, “15-21” for “3-10”, “exemplary” for “representative”

[1] = system: hand-foot syndrome caused by capecitabine in Balb/c mice; experiment: Mouse model of hand-foot syndrome caused by capecitabine, gel application or oral administration; type: in vivo; settings: Mus musculus, 192 h, capecitabine 1000 mg/kg once daily, oral 200 mpk twice per day, 8 days
Experimental: A mouse animal model was established. 6-week aged male Balb/c mice were administered with capecitabine by daily gavage. After a few days, mice's paws developed hand-foot syndrome symptoms (similar to the results of the rat model, such as, in FIG. 13). Similar to the human body, mice developed hand-foot syndrome in the forepaws and hind paws after oral administration of capecitabine. The causes of the two are the same, and the disorder is also very similar. Therefore, mice are very good animal models for simulating the hand-foot syndrome caused by capecitabine.
After Balb/c mice were fed and adapted for one week (about 20 g), the mice were divided into groups, with 10 mice in each group. Then, the mice were subject to gavage administration. Capecitabine was dissolved in normal saline with pH=8, and the gavage dose was not greater than 0.3 mL at each time. After gavage, the blank gel was applied to the forepaws and the hind paws (about 4*0.5 cm*0.5 cm) in group of blank gel, and gels containing different drugs were applied to the forepaws and the hind paws (about 4*0.5 cm*0.5 cm) in group of administration. After application, the mice were fixed in Elizabethan collar for 4 hours. After 4 hours, the mice were released, wiped with clean water to remove any residual drug at the application site, and allowed back to the cage. The gavage and application tests are repeated daily until the group of blank has developed obvious hand-foot syndrome. […] Additionally, the thymidine derivative and the combination of thymidine derivative and uridine derivative were orally administered for observing the relief of the hand-foot syndrome. In examples 41-48, thymidine derivative and/or uridine derivative were/was applied, and in examples 49-52, thymidine derivative and/or uridine derivative were/was administered orally.
Table 5 lists the combinations of animal experiments of capecitabine and thymidine derivative (or a combination of thymidine derivative and uridine derivative) and the corresponding experimental results (wherein the data in the column of control rate=the occurrence rate of hand-foot syndrome in group of blank—the occurrence rate of hand-foot syndrome in group of administration).
The effect of thymidine derivative or a combination of thymidine derivative and uridine derivative on a mouse model with chemotherapeutic drug (capecitabine)-induced hand-foot syndrome was tested according to the method in Examples 41-52. Wherein, the drugs were administered transdermally for Examples 119-120 and orally for Examples 121-123.
The test thymidine derivative or the combination of thymidine derivative and uridine derivative, as well as the final concentration of the test compounds were shown in Table 9. Table 9 lists the combinations of animal experiments of capecitabine and the thymidine derivative gel (or a compounded gel of thymidine derivative and uridine derivative) and the corresponding experimental results (wherein the data in the column of control rate=the occurrence rate of hand-foot syndrome in Group of blank—the occurrence rate of hand-foot syndrome in Group of administration).

[2] = system: 5-FU-induced diarrhea in Balb/c mice; experiment: 5-FU-induced diarrhea mouse model (175 mg/kg single i.p.); type: in vivo; settings: 5-FU 175 mg/kg single i.p.; for Survival Rate / Average Diarrhea Grade: 6 days; for Average Diarrhea Grade: score 0-4
Experimental: 7-8-week-old male Balb/c mice were used to establish a 5-FU induced diarrhea model to test the effect of the thymidine derivative or the combination of thymidine derivative and uridine derivative on the relief of diarrhea.
Modeling dose of 5-Fu: 175 mg/kg; single administration, intraperitoneal injection (ip.);
Administration mode of the compound to test (thymidine derivative or combination of thymidine derivative and uridine derivative): single administration, by gavage, advance administration of the compound to test at various time points prior to intraperitoneal injection of 5-FU. The compound to test was administered 1 h prior to the administration of 5-FU, a certain amount of 5-FU was injected intraperitoneally 1 h later, and the compound to test was administered once again 7 h after the injection of 5-FU.
The mice were fed and adapted for one week, and then divided into groups, with 10 mice in each group for administration test.
The mice in the Group of blank was injected with 0.9% NaCl, and evaluated the effect by observing the change of diarrhea grade, food uptake, and weight change. The severity of diarrhea was scored in accordance with the following standards: 0: normal feces, 1: soft feces, 2: slightly wet, soft feces, 3: wet, unformed feces, with moderate coloration in perianal region, 4: watery feces with heavy coloration of hair in perianal region. The severity of diarrhea was evaluated by occurrence scores of various grades of diarrhea (Scores 0 to 4) and average score of diarrhea. […] The models were stable, and satisfied the experimental requirements.
5-FU was dissolved in a 0.9% NaCl solution, the mice in the model group and the treatment group were all i.p. injected at a dose of 175 mg/kg/d, […]. While modeling of injection administration of 5-FU, the thymidine derivative or the combination of thymidine derivative and uridine derivative was administered by gavage, and the compounds to test were dissolved in a PBS solution containing 5% DMSO+1% HPMC. Body weight was weighed daily to count the weight change (Δ % BW, the weight changes recorded in the table were the values on Day 6), and the food was weighed daily to calculate the food uptake. The mice were daily observed for their clinical status, e.g., activity, diarrhea, hair, fighting, etc. After 6 days, the experiments were completed and statistically analyzed for the results.

[3] = selected compound final concentration 0.8 μM
[4] = selected compound final concentration 1.6 μM
[5] = selected compound final concentration 3.13 μM
[6] = selected compound final concentration 6.25 μM
[7] = selected compound final concentration 12.5 μM
[8] = selected compound final concentration 25 μM
[9] = selected compound final concentration 50 μM

## CCCC(=O)OC[C@H]1O[C@@H](n2cc(C)c(=O)[nH]c2=O)C[C@@H]1OC(=O)CCC [T6, ((2R,3S,5R)-3-(butyryloxy)-5-(5-methyl-2,4-dioxo-3,4-dihydropyrimidin-1(2H)-yl)tetrahydrofuran-2-yl)methyl Butyrate]
HaCaT cells; Homo sapiens, HaCaT, increase vs Group of 5-FU, 5-FU 20 μM, compound 1 μM, 48 h, read-out: Cell Survival Rate
  activation at 1 µM: 27 to 34%
HaCaT cells; Homo sapiens, HaCaT, increase vs Group of 5-FU, 5-FU 20 μM, compound 5 μM, 48 h, read-out: Cell Survival Rate
  activation at 5 µM: 40 to 48%
HaCaT cells; Homo sapiens, HaCaT, increase vs Group of 5-FU, 5-FU 20 μM, compound 10 μM, 48 h, read-out: Cell Survival Rate
  activation at 10 µM: 55 to 65%
HaCaT cells; Homo sapiens, HaCaT, increase vs Group of 5-FU, 5-FU 20 μM, compound 50 μM, 48 h, read-out: Cell Survival Rate
  activation at 50 µM: 65 to 75%
HaCaT cells; Homo sapiens, HaCaT, increase vs Group of 5-FU, 5-FU 20 μM, compound 100 μM, 48 h, read-out: Cell Survival Rate
  activation at 100 µM: 68 to 75%
HaCaT cells; Homo sapiens, HaCaT, increase vs Group of 5-FU, 5-FU 20 μM, compound 200 μM, 48 h, read-out: Cell Survival Rate
  activation at 200 µM: 85 to 95%
[1]; read-out: Control Rate Forepaws
  inhibition in vivo at 200 mg/kg: 65%
[1]; read-out: Control Rate Hindpaws
  inhibition in vivo at 200 mg/kg: 77.5%

## Cc1cn([C@H]2C[C@H](O)[C@@H](COC(=O)C(C)c3cccc(C(=O)c4ccccc4)c3)O2)c(=O)[nH]c1=O (stereo partly shown) [T33]
HaCaT cells; [3]
  Cell Survival Rate (increased percentage of cell survival compared with the Group of 5-FU): 36%-42%
HaCaT cells; [4]
  Cell Survival Rate (increased percentage of cell survival compared with the Group of 5-FU): 37%-44%
HaCaT cells; [5]
  Cell Survival Rate (increased percentage of cell survival compared with the Group of 5-FU): 39%-49%
HaCaT cells; [6]
  Cell Survival Rate (increased percentage of cell survival compared with the Group of 5-FU): 36%-42%
HaCaT cells; [7]
  Cell Survival Rate (increased percentage of cell survival compared with the Group of 5-FU): 55%-63%
HaCaT cells; [8]
  Cell Survival Rate (increased percentage of cell survival compared with the Group of 5-FU): 64%-71%
HaCaT cells; [9]
  Cell Survival Rate (increased percentage of cell survival compared with the Group of 5-FU): 66%-73%
HaCaT cells; selected compound final concentration 100 μM
  Cell Survival Rate (increased percentage of cell survival compared with the Group of 5-FU): 55%-63%
[2]; 50 mpk gavage
  Δ % BW (on Day 6): 4.18% ± 0.56%
  Survival Rate: 100%
  Average Diarrhea Grade: 1

## CCC(CC)COC(=O)[C@H](C)N[P@](=O)(OC[C@H]1O[C@@H](n2cc(C)c(=O)[nH]c2=O)C[C@@H]1O)Oc1ccccc1 [T48]
HaCaT cells; [3]
  Cell Survival Rate (increased percentage of cell survival compared with the Group of 5-FU): 26%-34%
HaCaT cells; [4]
  Cell Survival Rate (increased percentage of cell survival compared with the Group of 5-FU): 38%-46%
HaCaT cells; [5]
  Cell Survival Rate (increased percentage of cell survival compared with the Group of 5-FU): 41%-48%
HaCaT cells; [6]
  Cell Survival Rate (increased percentage of cell survival compared with the Group of 5-FU): 66%-73%
HaCaT cells; [7]
  Cell Survival Rate (increased percentage of cell survival compared with the Group of 5-FU): 68%-76%
HaCaT cells; [8]
  Cell Survival Rate (increased percentage of cell survival compared with the Group of 5-FU): 77%-85%
HaCaT cells; [9]
  Cell Survival Rate (increased percentage of cell survival compared with the Group of 5-FU): 69%-76%
[2]; 15 mpk gavage
  Δ % BW (on Day 6): −1.97% ± 0.67%
  Survival Rate: 100%
  Average Diarrhea Grade: 1.3

## CCC(CC)COC(=O)[C@H](C)N[P@@](=O)(Oc1ccccc1)O[C@H]1C[C@H](n2cc(C)c(=O)[nH]c2=O)O[C@@H]1CO [T49]
HaCaT cells; [3]
  Cell Survival Rate (increased percentage of cell survival compared with the Group of 5-FU): 35%-42%
HaCaT cells; [4]
  Cell Survival Rate (increased percentage of cell survival compared with the Group of 5-FU): 56%-63%
HaCaT cells; [5]
  Cell Survival Rate (increased percentage of cell survival compared with the Group of 5-FU): 72%-79%
HaCaT cells; [6]
  Cell Survival Rate (increased percentage of cell survival compared with the Group of 5-FU): 68%-74%
HaCaT cells; [7]
  Cell Survival Rate (increased percentage of cell survival compared with the Group of 5-FU): 36%-44%
[2]; 15 mpk gavage
  Δ % BW (on Day 6): −1.97% ± 0.67%
  Survival Rate: 80%
  Average Diarrhea Grade: 0.75
